Experimental data as given in paper PMC9603476, “Desaturation of the Sphingofungin Polyketide Tail Results in Increased Serine Palmitoyltransferase Inhibition” (Microbiology Spectrum, 2022).

Molecular target: T1, SPT (serine palmitoyltransferase) (Sphingomonas paucimobilis, UniProt Q93UV0)
T1 construct: soluble homodimer
Experiment: HPLC-HRMS of 3-ketodihydrosphingosine; coupled PPi assay
Type: biochemical
Conditions: pH 7.5, 37°C

T1 sequence (Q93UV0 whole entry): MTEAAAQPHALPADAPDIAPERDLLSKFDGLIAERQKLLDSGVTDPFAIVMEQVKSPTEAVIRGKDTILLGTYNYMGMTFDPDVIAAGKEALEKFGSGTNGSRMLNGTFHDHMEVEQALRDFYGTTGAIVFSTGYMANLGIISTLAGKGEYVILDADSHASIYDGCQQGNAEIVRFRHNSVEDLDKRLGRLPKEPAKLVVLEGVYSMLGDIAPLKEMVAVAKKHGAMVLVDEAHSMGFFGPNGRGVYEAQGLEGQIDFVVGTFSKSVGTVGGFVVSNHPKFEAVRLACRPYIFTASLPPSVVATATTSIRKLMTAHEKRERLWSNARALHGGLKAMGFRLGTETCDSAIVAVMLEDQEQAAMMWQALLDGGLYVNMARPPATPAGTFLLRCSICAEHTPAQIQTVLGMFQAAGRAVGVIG

Compound	HPLC-HRMS of 3-ketodihydrosphingosine; coupled PPi assay (5 mM serine, palmitoyl-CoA regenerated by FadD)	HPLC-HRMS of 3-ketodihydrosphingosine; coupled PPi assay (with palmitoyl-CoA regenerated by FadD, serine concentration varied)
CCCCCCCCCCCCCCCC(=O)SCCNC(=O)CCNC(=O)[C@H](O)C(C)(C)COP(=O)(O)OP(=O)(O)OC[C@H]1O[C@@H](n2cnc3c(N)ncnc32)[C@H](O)[C@@H]1OP(=O)(O)O [palmitoyl-CoA]	we verified the production of 3-ketodihydrosphingosine by our SPT reaction	–
N[C@@H](CO)C(=O)O [serine]	–	we verified the production of 3-ketodihydrosphingosine by our SPT reaction
